Assay results as given in article PMC6052416, “Selective inhibition of carbonic anhydrase-IX by sulphonamide derivatives induces pH and reactive oxygen species-mediated apoptosis in cervical cancer HeLa cells” (Journal of Enzyme Inhibition and Medicinal Chemistry, 2018).
Read-outs that look alike come from different tables or passages of the source.

Legend:
[1] = system: HT-29 (colon adenoma cancer); test: WST-1 cytotoxicity, HT-29; format: cell-based, human
Procedure: (§1) Cancer and normal cell lines were purchased from ATCC and stored in liquid nitrogen. HT-29 (colon adenoma cancer), HeLa (cervix adenoma cancer cell), MDA-MB-231 (breast adenoma cancer cell), HEK-293 (embryonic kidney epithelial cell) and PNT-1A (normal prostate cells) cell lines were incubated in DMEM: F-12 and RPMI-1640, including 10% foetal bovine serum (FBS), 100 µg/mL streptomycin/100 IU/mL penicillin, at 37 °C in an incubator containing 5% CO2, 95% air in a humid atmosphere.
(§2) The cytotoxic effects of the substances were evaluated with WST-1 kits (Roche, Germany) in accordance with the manufacturer’s protocols. The cells were planted in 96-well plates (10^4 cells in each well). After incubation for 24 h, the media were discarded and the substances and 5-Fu as the control drug, at doses of 0, 2.5, 5, 10, 25, 50, 100 and 200 µM, were incubated for 24, 48 and 72 h. WST-1 reactive of 10 µL was added to all wells. Following 4-h incubation, the measurements were taken on a plate reader (Spectramax M5) at wavelengths of 450 and 630 nm. Graphs were then created and the IC50 value of each substance was calculated.

[2] = system: MDA-MB-231 (breast adenoma cancer cell); test: WST-1 cytotoxicity, MDA-MB-231; format: cell-based, human
Procedure: as §1, §2

[3] = system: PNT-1A (normal prostate cells); test: WST-1 cytotoxicity, PNT-1A; format: cell-based; conditions: normal cell
Procedure: as §1, §2

HeLa cells [4] = test: Cell cycle analysis by flow cytometry; format: cell-based, human; conditions: 24 h
Procedure: Cell cycle analysis was performed using BD Cycletest™ Plus DNA Reagent kit (BD Biosciences). According to the kit protocol, 1 × 10^6 cells were planted in 6-well plates, and following 24 h, the cells were incubated for 24 h, with sulphonamide derivative compounds at concentrations of 10–25–50 µM. The cells were raised with trypsin handling and centrifuged at 1500 rpm for 5 min. A suspension was formed with 1X binding buffer, and respectively, 250 µL solution A was added and incubated in a light-free environment for 10 min; 200 µL solution B was added and incubated in a light-free environment for 10 min; and 200 µL solution C was added and incubated in at +4° C in a protected-light environment for 10 min. All analyses were performed by flow cytometry (BD Via, New Jersey, USA).

HeLa cells [5] = test: Mitochondrial membrane potential (JC-1); format: cell-based, human; conditions: JC-1, 0–200 μM, 24 h
Procedure: Mitochondrial membrane potential (MMP) changes appearing in the intrinsic pathway of mitochondria were spectrophotometrically detected. MMP was measured in a fluorometry device (Spectramax, M5), at wavelengths of 490 nm (excitation) and 530 nm(emission) according to the fluorometric Mitochondria Staining Kit (Sigma, Germany, CS0390) protocol.

[6] = system: HeLa (cervix adenoma cancer cell); test: WST-1 cytotoxicity, HeLa; format: cell-based, human
Procedure: as §1, §2

HeLa cells [7] = test: Annexin-V FITC/PI apoptosis by flow cytometry; format: cell-based, human; conditions: Annexin-V FITC
Procedure: The apoptotic effect of the substances was explored with the commercial FITC Annexin-V Apoptosis Detection Kit I (BD Biosciences, New Jersey, USA) according to the manufacturer’s protocol. The cells were planted in 6-well plates (5 × 10^5 cells/well), and following 24-h incubation, sulphonamide derivative compounds at concentrations of 10–25–50 µM were administered, followed by incubation for 24 h. The cells were raised by trypsin handling and transferred into new tubes within 1X binding buffer, as 1 × 10^6 in each tube, which were incubated for 15 min at room temperature. 5 µL of fluorochrome-conjugated Annexin-V and 5 µL of propidium iodide dyes were then added. 100 µL 1X binding buffer was added to the cells, and they were then centrifuged at 1200 rpm, for 5 min. Finally, the cells were analysed in flow cytometry (BD Via, New Jersey, USA).

HeLa cells [8] = test: Intracellular pH, extracellular pH and lactate level; format: cell-based, human
Procedure: Intracellular PH was measured according to the protocol of the fluorometric intracellular pH assay kit (Sigma, Germany, MAK-150). Fluorescent BCFL-AM indicator that was able to pass through the cell membrane was used to measure pHi fluctuations in the fluorometric intracellular pH kit. BCFL-AM was utilised to measure the reductions in pHi of the cells that had been treated by various conditions. The cells were planted in black plates, as 6 × 10^4 in each well of the plate, and incubated for 24 h. The medium was replaced with BCFL-AM reagent which had been prepared in 100 µL of HBS solution (Hank’s buffer with 20 mM HEPES, 5 mM probenecid), then the cells were incubated at 37 °C in an atmosphere of 5% CO2 for 30 min (protected from light). Sulphonamide compound at doses of 0, 10, 25 and 50 µM was added to the HBS solution. In the next 5 min, the measurement was performed at wavelengths of 490 nm (excitation) and 535 nm (emission) in spectrofluorimetry (Spectramax, M5). Extracellular pH (pHe) and lactate levels were measured with commercial kit by the blood gas device (ABL90 FLEX PLUS, Radiometer, Copenhagen, Denmark) which is routinely used in the clinical biochemistry laboratory of hospital. After the application of the substance in this method, the media were analysed directly by the device.

NS(=O)(=O)c1ccc(CCN=Cc2cc(Br)ccc2O)cc1 [Compound 1]
IC50 ([1]; WST-1, 24 h, read-out: IC50 HT-29 24 h): 46.1 ± 5.4 µM
IC50 ([1]; WST-1, 48 h, read-out: IC50 HT-29 48 h): 43.8 ± 1.2 µM
IC50 ([1]; WST-1, 72 h, read-out: IC50 HT-29 72 h): 108 ± 34.5 µM
IC50 ([2]; WST-1, 48 h, read-out: IC50 MDA-MB-231 48 h): 68.8 ± 4.65 µM
IC50 ([2]; WST-1, 72 h, read-out: IC50 MDA-MB-231 72 h): 56.7 ± 3.55 µM
IC50 ([3]; WST-1, 48 h, read-out: IC50 PNT-1A 48 h): 86.2 ± 12.1 µM
IC50 ([3]; WST-1, 72 h, read-out: IC50 PNT-1A 72 h): 197 ± 11.2 µM
S (HeLa cells [4]; 50μM): 20.1%
Sub-G1 (HeLa cells [4]; 50μM): 10.8%
dose from which the cell division effect was seen (HeLa cells [4]): ≥ 25 µM
mitochondrial membrane potential (MMP) (HeLa cells [5]): reduced in a dose-dependent manner
IC50 ([6]; WST-1, 24 h, mean of three experiments, read-out: IC50 HeLa 24 h): 19.9 ± 1.1 µM
IC50 ([6]; WST-1, 48 h, read-out: IC50 HeLa 48 h): 18.8 ± 1.1 µM
IC50 ([6]; WST-1, 72 h, read-out: IC50 HeLa 72 h): 11.3 ± 1.1 µM
dose from which an apoptotic effect was shown (HeLa cells [7]): ≥ 25 µM
lactate level of media (HeLa cells [8]; HeLa cell media): significant dose-related fall
pHe (HeLa cells [8]; HeLa cell media): significant increase
pHi (HeLa cells [8]; HeLa, 0, 10, 25 and 50 µM): significant dose-related fall
